Entries after “also recorded” stand apart in the source; their conditions may differ. Where only a bound is given, the exact number is not on record here.

Data set [1] relates to SK (melanoma). As to the kind of experiment: Cytotoxicity (sulphorhodamine B), cancer cell line, Table 1B. The conditions noted are these: 72 h. In kind it is cell-based.
Experimental: (§3) The cytotoxicities were determined using the sulphorhodamine B assay method (Skehan, P. et al. J. Nat. Canc. Inst. 82, 1107 (1990)).
Data set [2] has as its system MCF-7 (breast carcinoma). The data set is described as above. In kind it is cell-based. The conditions noted are these: Homo sapiens, MCF7, 72 h.
Experimental: as §3
Data set [3] relates to OVCAR-3 (ovarian carcinoma). The data set is described as above. Format: cell-based. Conditions: Homo sapiens, OVCAR-3, 72 h.
Experimental: as §3
Data set [4] deals with SIHA (cervix carcinoma). The description is as above. In kind it is cell-based. Conditions: Homo sapiens, SiHa, 72 h.
Experimental: as §3
Data set [5] deals with MOLT-4 (T-cell leukaemia). The data set is described as above. Format: cell-based. The conditions noted are these: Homo sapiens, MOLT-4, 72 h.
Experimental: as §3
Data set [6] concerns 786-0 (human perirenal cell adenocarci). As to the kind of experiment: Cytotoxicity, Example 8. The conditions noted are these: 786-0, 72 h. Format: cell-based. How it is done:
(§1) Tumor or normal cells were cultured in 96-well plates with the test compound in 200 μl of RPMI supplemented with 10% fetal bovine serum (Hyclone, Salt Lake City, Utah) at 37° C. in a humidified atmosphere containing 5% CO2 in air for 72 hours. Sulforhodamine B dissolved in 1% acetic acid was added, and the plates were incubated for 30 minutes at ambient temperature, washed with 1% acetic acid, and blotted. To the air-dried plates were added 100 μl of […] unbuffered TRIS base (pH 10.5) with shaking. The optical densities of the plates were measured with a microplate reader (Molecular Devices Thermomax) at 540 nm. The concentration of compound required to reduce the absorbance to 50% of control samples was recorded as IC50.
(§2) NHDF: Normal human dermal fibroblast (available from Clouelics Corp., San Diego, Calif.); HLF-1: Normal human diploid lung; W1-38; Normal human diploid lung; CHO; Chinese hamster ovary; SK-MEL-28: Melanoma; CAPAN-1: Pancreatic carcinoma; H322: lung carcinoma; MCF-7; Breast carcinoma; BT-549; Human breast ductal carcinoma; OVCAR-3: Human ovarian carcinoma; HT-29: Human adenocarcinoma, colon; SIHA: Human squamous carcinoma crvx; 786-0: Human perirenal cell adenocarci; PC-3: Human prostate adenocarcinoma; HL-60: Human promyelomic leukemia; MOLT-4: Human T-cell leukemia. All cell lines except NHDF are available from the American Tissue Culture Collection, Rockville, Md.

In data set [7] the test system is BT-549 (human breast ductal carcinoma). As to the kind of experiment: Cytotoxicity, Example 8. Format: cell-based. Conditions: BT-549, 72 h. How it is done:
as §1, §2

For data set [8], the system named is CAPAN-1 (pancreatic carcinoma). As to the kind of experiment: Cytotoxicity, Example 8. In kind it is cell-based. The conditions noted are these: Homo sapiens, CAPAN-1, 72 h. How it is done: as §1, §2
Data set [9] has as its system CHO (Chinese hamster ovary). Nature of the data set: Cytotoxicity, Example 8. In kind it is cell-based. The conditions noted are these: Cricetulus griseus, 72 h. How it is done:
as §1, §2

In data set [10] the test system is H322 (lung carcinoma). As to the kind of experiment: Cytotoxicity, Example 8. Format: cell-based. Conditions: NCI-H322, 72 h. How it is done:
as §1, §2

Data set [11] relates to HLF-1 (normal human diploid lung). As to the kind of experiment: Cytotoxicity, Example 8. Format: cell-based. Conditions: HLF1, 72 h. On the procedure: as §1, §2
The subject of data set [12] is HT-29 (human adenocarcinoma, colon). Nature of the data set: Cytotoxicity, Example 8. In kind it is cell-based. The conditions noted are these: HT-29, 72 h. On the procedure:
as §1, §2

Data set [13] concerns MCF-7 (breast carcinoma). Nature of the data set: Cytotoxicity, Example 8. In kind it is cell-based. Conditions: Homo sapiens, MCF7, 72 h. How it is done:
as §1, §2

For data set [14], the system named is NHDF (normal human dermal fibroblast). As to the kind of experiment: Cytotoxicity, Example 8. In kind it is cell-based. Conditions: 72 h. On the procedure: as §1, §2
The subject of data set [15] is OVCAR-3 (human ovarian carcinoma). Nature of the data set: Cytotoxicity, Example 8. Format: cell-based. The conditions noted are these: OVCAR-3, 72 h. On the procedure: as §1, §2
The subject of data set [16] is PC-3 (human prostate adenocarcinoma). As to the kind of experiment: Cytotoxicity, Example 8. In kind it is cell-based. The conditions noted are these: 72 h. How it is done: as §1, §2
Data set [17] deals with S1HA (human squamous carcinoma crvx). As to the kind of experiment: Cytotoxicity, Example 8. Format: cell-based. Conditions: 72 h. On the procedure:
as §1, §2

The subject of data set [18] is SK-MEL-28 (melanoma). As to the kind of experiment: Cytotoxicity, Example 8. Format: cell-based. The conditions noted are these: Homo sapiens, SK-MEL-28, 72 h. On the procedure: as §1, §2
The subject of data set [19] is W1-38 (normal human diploid lung). As to the kind of experiment: Cytotoxicity, Example 8. Format: cell-based. Conditions: W138, 72 h. How it is done: as §1, §2
The nature of data set [20]: Taxol release from protaxols in aqueous buffer. In kind it is physicochemical. Conditions: pH 7.0-9.0, 20 and 37° C., FIG. 2A. How it is done:
The derivatives in which the C-7 hydroxyl group was acetylated were extremely unstable in aqueous media losing the C-7 substituent very rapidly. The stability of the synthesized compounds was examined at various pH's and temperatures. […] Table 1A includes the half-lives of six of these compounds at pH 7.5 and 9. […] This illustrates the ability to fine-tune the rate of release of taxol to a desired set of conditions using simple chemical principles.
Protaxol 5 was dissolved in dimethylsulphoxide (DMSO) at 25° C. and immediately added to the appropriate phosphate buffer solution at the specified temperature. Aliquots were analysed using a Waters Maxima system HPLC instrument equipped with auto-injector (3.9×300 mm C18 column equipped with a precolumn; flow rate, 1.5 ml min^-1; eluant, gradient A-B, where A is 80% 100 mM ammonium acetate, buffer pH 6.0, and B is 100% methanol; ultraviolet detector). The per cent taxol released was determined from the relative areas of the peaks corresponding to protaxol 5 and taxol (the conversion was clean, and it was assumed that the two compounds have equal molar extinction coefficients).

For data set [21], the system named is tubulin / microtubules. As to the kind of experiment: Tubulin polymerization-depolymerization (CaCl2-induced depolymerization of microtubules). In kind it is biochemical. The conditions noted are these: 10^-6 M, 1.0 mg/mL tubulin. On the procedure:
Tubulin polymerization to microtubules is promoted by GTP, whereas CaCl2 causes depolymerization of microtubules back to tubulin (FIG. 3A). […] The designed protaxol 5 was tested for its ability to stabilize microtubules formed from tubulin via the action of GTP. […] These findings are in agreement with the previously reported loss of activity resulting from blocking the C-2' hydroxyl group.
Tubulin polynerization-depolymerization experiments with taxol and designed protaxol 5 are illustrated in FIG. 3. CaCl2 -promoted depolymerization of microtubules was suppressed by taxol and protaxol 5 (after taxol release).
These measurements may be conducted at 37° C. following a recently developed procedure described by R. Merlock and W. Wrasidlo (Analytical Biochemistry, 1993). In each case 1.0 mM GTP may be employed to promote initial polymerization of tubulin.
D: Tubulin (1.0 mg/mL) with protaxol 5 (10^-6 M) after release of taxol (as determined by HPLC, essentially quantitative conversion).

In the case of `CC(=O)O[C@H]1C(=O)[C@@]2(C)[C@H]([C@H](OC(=O)c3ccccc3)[C@]3(O)C[C@H](OC(=O)[C@H](OC(=O)CS(=O)(=O)CC(=O)O)[C@@H](NC(=O)c4ccccc4)c4ccccc4)C(C)=C1C3(C)C)[C@]1(OC(C)=O)CO[C@@H]1C[C@@H]2O` [Compound 5], the IC50 in [1] is 10 µM; in [2], 10 µM; in data set [3] it was less than 0.001 µM; in data set [4], 100 µM; in data set [5], 0.001 µM; in data set [6] it was 0.13 µM. The IC50 in data set [7] turned out to be 0.098 µM; in data set [8] it was 0.19 µM; in [9], 100 µM; in data set [10], 5 µM; in [11], 13 µM; in data set [12], 0.098 µM. Moreover, the IC50 in data set [13] stood at 61 µM; in data set [14], 0.19 µM; in data set [15], 0.098 µM; in data set [16], 50 µM; in data set [17], 50 µM; in data set [18], 100 µM. The molecule further gave an IC50 in data set [19] of 13 µM. For the same molecule, the “effect of temperature and pH on taxol release” value in data set [20] is “accelerating effect of higher temperatures and pH on taxol release”. Further, the “prevention of CaCl2-induced depolymerization of microtubules” value in data set [21] (CaCl2 0.25 mM after 16 minutes, 37° C., initial, no prior release) is recorded as “failed to prevent CaCl2-induced disassembly of microtubules; also recorded: caused depolymerization of microtubules”. Moreover, the “prevention of CaCl2-induced depolymerization of microtubules after taxol release” value in data set [21] (after prolonged exposure / release of taxol) is given as “reached potencies comparable to that of taxol; also recorded: suppressed”.

What is called IC50 is the concentration that inhibits the measured activity by half. High values mean a need for much substance, low ones inhibition by little substance.

Source of the values: patent publication US5817840A, “Water soluble taxol derivatives” (The Scripps Research Institute, priority 1997, dated 1998).
